In ChEMBL document CHEMBL4382243, “The synthesis of 4-arylamido-2-arylaminoprimidines as potent EGFR T790M/L858R inhibitors for NSCLC” (Bioorg Med Chem, 2018):
Calls of active or inactive are those of the source. The rule behind the calls is not given here.

Assays:
[1] = biological target: Epidermal growth factor receptor (Homo sapiens, UniProt P00533, L858R/T790M); assay type: cell-based, Sf9
[2] = biological target: Epidermal growth factor receptor (Homo sapiens, UniProt P00533); assay type: ADME, cell-based, Sf9
Description: Inhibition of wild-type human N-terminal GST-tagged EGFR (695 to end residues) expressed in baculovirus infected Sf9 insect cells using Poly (4:1 Glu, Tyr) as substrate after 60 mins in presence of ATP by ADP-Glo assay

NCI-H1975 [3] = test: Antiproliferative activity against human NCI-H1975 cells harboring EGFR T790M/L858R double mutant after 72 hrs by MTT assay; assay type: functional, cell-based; settings: NCI-H1975, 72 h
A-431 = test: cells; assay type: ADME, cell-based; settings: Homo sapiens, A-431, 72 h;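 also: growth inhibition of A-431 cells expressing wild-type EGFR, read out by MTT assay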
Description: Antiproliferative activity against human A431 cells harboring wild-type EGFR after 72 hrs by MTT assay

A549 = test: cells; assay type: functional, cell-based; settings: Homo sapiens, A549, 72 h
Description: Antiproliferative activity against human A549 cells after 72 hrs by MTT assay

ASPC1 = test: cells; assay type: functional, cell-based; settings: Homo sapiens, ASPC1, 72 h;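 also: growth inhibition of the cells quantified with an MTT readout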
Description: Antiproliferative activity against human Aspc-1 cells after 72 hrs by MTT assay

cells = assay type: ADME, cell-based; settings: Homo sapiens, NHBE, 72 h
Description: Antiproliferative activity against NHBE cells after 72 hrs by MTT assay

NCI-H1975 [4] = test: Antiproliferative activity against human NCI-H1975 cells harboring EGFR T790M/L858R double mutant assessed as cell viability at 0.1 uM after 24 hrs by MTT assay (reference value: 98.3%); assay type: functional; settings: for viability at 0.1 µM: Homo sapiens, NCI-H1975, 24 h, read-out: Activity
NCI-H1975 [5] = test: Antiproliferative activity against human NCI-H1975 cells harboring EGFR T790M/L858R double mutant assessed as cell viability at 0.1 uM after 48 hrs by MTT assay (reference value: 98.3%); assay type: functional; settings: for viability at 0.1 µM: Homo sapiens, NCI-H1975, 48 h, read-out: Activity
NCI-H1975 [6] = test: Antiproliferative activity against human NCI-H1975 cells harboring EGFR T790M/L858R double mutant assessed as cell viability at 0.1 uM after 72 hrs by MTT assay (reference value: 98.3%); assay type: functional; settings: for viability at 0.1 µM: Homo sapiens, NCI-H1975, 72 h, read-out: Activity
NCI-H1975 [7] = test: Antiproliferative activity against human NCI-H1975 cells harboring EGFR T790M/L858R double mutant assessed as cell viability at 1 uM after 24 hrs by MTT assay (reference value: 98.3%); assay type: functional; settings: for viability at 1 µM: Homo sapiens, NCI-H1975, 24 h, read-out: Activity
NCI-H1975 [8] = test: Antiproliferative activity against human NCI-H1975 cells harboring EGFR T790M/L858R double mutant assessed as cell viability at 1 uM after 48 hrs by MTT assay (reference value: 98.3%); assay type: functional; settings: for viability at 1 µM: Homo sapiens, NCI-H1975, 48 h, read-out: Activity
NCI-H1975 [9] = test: Antiproliferative activity against human NCI-H1975 cells harboring EGFR T790M/L858R double mutant assessed as cell viability at 1 uM after 72 hrs by MTT assay (reference value: 98.3%); assay type: functional; settings: for viability at 1 µM: Homo sapiens, NCI-H1975, 72 h, read-out: Activity
NCI-H1975 [10] = test: Antiproliferative activity against human NCI-H1975 cells harboring EGFR T790M/L858R double mutant assessed as cell viability at 10 uM after 24 hrs by MTT assay (reference value: 98.3%); assay type: functional; settings: for viability at 10 µM: Homo sapiens, NCI-H1975, 24 h, read-out: Activity
NCI-H1975 [11] = test: Antiproliferative activity against human NCI-H1975 cells harboring EGFR T790M/L858R double mutant assessed as cell viability at 10 uM after 48 hrs by MTT assay (reference value: 98.3%); assay type: functional; settings: for viability at 10 µM: Homo sapiens, NCI-H1975, 48 h, read-out: Activity
NCI-H1975 [12] = test: Antiproliferative activity against human NCI-H1975 cells harboring EGFR T790M/L858R double mutant assessed as cell viability at 10 uM after 72 hrs by MTT assay (reference value: 98.3%); assay type: functional; settings: for viability at 10 µM: Homo sapiens, NCI-H1975, 72 h, read-out: Activity
NCI-H23 = test: Antiproliferative activity against human NCI-H23 cells after 72 hrs by MTT assay; assay type: functional, cell-based; settings: NCI-H23, 72 h
NCI-H1975 [13] = test: Antimigratory activity against human NCI-H1975 cells at 5 to 10 uM up to 48 hrs by wound healing assay; assay type: functional, cell-based
NCI-H1975 [14] = test: Antiproliferative activity against human NCI-H1975 cells harboring EGFR T790M/L858R double mutant at 1 to 20 uM after 72 hrs by acridine orange/ethidium bromide staining based fluorescent microscopic analysis; assay type: functional, cell-based
NCI-H1975 [15] = test: Induction of apoptosis in human NCI-H1975 cells harboring EGFR T790M/L858R double mutant assessed as nuclear condensation at 1 to 20 uM after 72 hrs by DAPI staining based fluorescent microscopic analysis; assay type: functional, cell-based
NCI-H1975 [16] = test: Induction of apoptosis in human NCI-H1975 cells harboring EGFR T790M/L858R double mutant assessed as membrane blebbing at 1 to 20 uM after 72 hrs by DAPI staining based fluorescent microscopic analysis; assay type: functional, cell-based
NCI-H1975 [17] = test: Induction of apoptosis in human NCI-H1975 cells harboring EGFR T790M/L858R double mutant assessed as apoptotic body formation at 1 to 20 uM after 72 hrs by DAPI staining based fluorescent microscopic analysis; assay type: functional, cell-based

Epidermal growth factor receptor (Homo sapiens, UniProt P00533), sequence (P00533 whole entry): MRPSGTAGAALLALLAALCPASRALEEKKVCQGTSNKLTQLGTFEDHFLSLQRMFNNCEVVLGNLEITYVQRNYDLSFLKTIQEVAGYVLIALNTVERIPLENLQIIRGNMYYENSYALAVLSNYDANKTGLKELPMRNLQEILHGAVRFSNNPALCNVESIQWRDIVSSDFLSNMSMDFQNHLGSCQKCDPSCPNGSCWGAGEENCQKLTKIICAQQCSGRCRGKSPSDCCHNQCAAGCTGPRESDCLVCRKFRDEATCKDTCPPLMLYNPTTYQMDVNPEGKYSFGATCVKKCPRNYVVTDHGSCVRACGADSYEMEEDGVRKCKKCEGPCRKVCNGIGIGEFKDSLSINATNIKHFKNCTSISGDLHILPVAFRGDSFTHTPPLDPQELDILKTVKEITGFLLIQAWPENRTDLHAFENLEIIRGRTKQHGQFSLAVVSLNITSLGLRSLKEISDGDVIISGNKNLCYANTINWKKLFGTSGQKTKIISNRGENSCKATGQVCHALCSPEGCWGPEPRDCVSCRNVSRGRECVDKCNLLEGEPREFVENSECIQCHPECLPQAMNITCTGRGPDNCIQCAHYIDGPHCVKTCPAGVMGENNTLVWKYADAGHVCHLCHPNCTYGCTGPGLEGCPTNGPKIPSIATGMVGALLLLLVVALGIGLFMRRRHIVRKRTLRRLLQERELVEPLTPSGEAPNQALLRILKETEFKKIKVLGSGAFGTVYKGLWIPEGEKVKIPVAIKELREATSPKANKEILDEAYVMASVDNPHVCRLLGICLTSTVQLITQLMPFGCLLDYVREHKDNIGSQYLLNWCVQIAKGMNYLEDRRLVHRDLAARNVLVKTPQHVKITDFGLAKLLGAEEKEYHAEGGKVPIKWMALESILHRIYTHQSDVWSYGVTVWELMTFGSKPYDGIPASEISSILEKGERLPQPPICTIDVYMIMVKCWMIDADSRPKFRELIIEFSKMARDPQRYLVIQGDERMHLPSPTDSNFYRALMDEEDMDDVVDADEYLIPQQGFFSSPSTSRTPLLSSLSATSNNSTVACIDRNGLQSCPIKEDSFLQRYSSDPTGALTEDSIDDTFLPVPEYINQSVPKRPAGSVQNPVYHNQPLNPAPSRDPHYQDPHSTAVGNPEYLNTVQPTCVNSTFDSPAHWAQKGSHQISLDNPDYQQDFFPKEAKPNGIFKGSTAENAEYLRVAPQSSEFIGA
Epidermal growth factor receptor (Homo sapiens, UniProt P00533, L858R/T790M), sequence (P00533 25-1210 T790M/L858R limits assumed): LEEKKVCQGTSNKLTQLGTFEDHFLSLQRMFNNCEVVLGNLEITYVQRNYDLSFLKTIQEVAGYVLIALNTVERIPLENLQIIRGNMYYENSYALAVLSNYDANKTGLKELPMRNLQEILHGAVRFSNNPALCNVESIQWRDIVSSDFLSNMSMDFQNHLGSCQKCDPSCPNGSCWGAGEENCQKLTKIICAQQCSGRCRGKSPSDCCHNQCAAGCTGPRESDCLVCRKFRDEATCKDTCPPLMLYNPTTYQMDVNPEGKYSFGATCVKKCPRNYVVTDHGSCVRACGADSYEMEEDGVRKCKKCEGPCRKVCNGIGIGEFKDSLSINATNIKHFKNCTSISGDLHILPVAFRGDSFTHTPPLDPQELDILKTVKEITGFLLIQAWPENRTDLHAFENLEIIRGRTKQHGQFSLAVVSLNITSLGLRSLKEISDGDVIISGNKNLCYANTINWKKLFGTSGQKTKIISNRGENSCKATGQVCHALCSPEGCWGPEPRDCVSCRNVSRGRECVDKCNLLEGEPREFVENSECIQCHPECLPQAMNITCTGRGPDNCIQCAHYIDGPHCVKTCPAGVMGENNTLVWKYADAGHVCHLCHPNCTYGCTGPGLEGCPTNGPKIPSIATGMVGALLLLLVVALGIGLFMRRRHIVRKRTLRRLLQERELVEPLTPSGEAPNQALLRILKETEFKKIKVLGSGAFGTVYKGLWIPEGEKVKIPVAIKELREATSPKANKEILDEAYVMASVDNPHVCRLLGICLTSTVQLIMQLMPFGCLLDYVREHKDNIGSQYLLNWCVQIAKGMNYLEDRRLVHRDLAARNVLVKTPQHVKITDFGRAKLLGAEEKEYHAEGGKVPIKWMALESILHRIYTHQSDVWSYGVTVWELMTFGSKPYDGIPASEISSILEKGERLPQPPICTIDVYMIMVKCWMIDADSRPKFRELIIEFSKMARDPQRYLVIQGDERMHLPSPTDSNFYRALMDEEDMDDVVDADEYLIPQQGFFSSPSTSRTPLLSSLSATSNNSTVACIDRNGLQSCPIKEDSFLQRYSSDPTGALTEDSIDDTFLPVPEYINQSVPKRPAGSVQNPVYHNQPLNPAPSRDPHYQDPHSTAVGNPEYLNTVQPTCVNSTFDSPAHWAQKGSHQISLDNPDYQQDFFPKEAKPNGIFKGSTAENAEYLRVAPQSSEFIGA

Row | SMILES | IC50 [1] | IC50 [2] | IC50 (NCI-H1975 [3]) | IC50 (A-431) | IC50 (A549) | IC50 (ASPC1) | IC50 (cells) | IC50 (NCI-H23) | other results
1 | C=CC(=O)Nc1cc(Nc2nccc(NC(=O)c3ccc(OC)c(OC)c3)n2)c(OC)cc1N(C)C | 0.0402 µM | 0.149 µM | 2.15 µM | 18.2 µM | – | – | – | – | –
2 | C=CC(=O)Nc1cc(Nc2nccc(-c3cn(C)c4ccccc34)n2)c(OC)cc1N(C)CCN(C)C [OSIMERTINIB] | – | – | […] | […] | 3.24 µM | 3.98 µM | > 40 µM | – | Activity (NCI-H1975 [4]): 87.1%; Activity (NCI-H1975 [5]): 83.6%; Activity (NCI-H1975 [6]): 77.2%; Activity (NCI-H1975 [7]): 78.6%; Activity (NCI-H1975 [8]): 59%; Activity (NCI-H1975 [9]): 33.5%; Activity (NCI-H1975 [10]): 3.68%; Activity (NCI-H1975 [11]): 1.71%; Activity (NCI-H1975 [12]): 1.42%
3 | C=CC(=O)Nc1cc(Nc2nccc(NC(=O)c3ccc(OC)c(OC)c3)n2)c(OC)cc1N1CCN(C)CC1 | 0.0126 µM | 0.157 µM | 1.66 µM | 11.7 µM | 6.82 µM | > 10 µM | 27 µM | > 16 µM | viability at 0.1 µM (NCI-H1975 [4]): 93.8%; viability at 0.1 µM (NCI-H1975 [5]): 91.6%; viability at 0.1 µM (NCI-H1975 [6]): 90.2%; viability at 1 µM (NCI-H1975 [7]): 85.4%; viability at 1 µM (NCI-H1975 [8]): 74.8%; viability at 1 µM (NCI-H1975 [9]): 52.8%; viability at 10 µM (NCI-H1975 [10]): 41.4%; viability at 10 µM (NCI-H1975 [11]): 11.8%; viability at 10 µM (NCI-H1975 [12]): 5.8%; Activity (NCI-H1975 [13]): Active; Activity (NCI-H1975 [14]): Active; Activity (NCI-H1975 [15]): Active; Activity (NCI-H1975 [16]): Active; Activity (NCI-H1975 [17]): Active
4 | C=CC(=O)Nc1cc(Nc2nccc(NC(=O)c3ccc(C(F)(F)F)cc3)n2)c(OC)cc1N1CCN(C)CC1 | 0.0279 µM | 0.152 µM | 3.42 µM | 9.2 µM | 7.89 µM | > 10 µM | 19.4 µM | 9.2 µM | –
5 | C=CC(=O)Nc1cc(Nc2nccc(NC(=O)c3cccc(OC)c3)n2)c(OC)cc1N1CCC(C(N)=O)CC1 | 0.0326 µM | 0.0505 µM | 11.5 µM | 13.1 µM | – | – | – | – | –
6 | C=CC(=O)Nc1cc(Nc2nccc(NC(=O)c3ccc(C(F)(F)F)cc3)n2)c(OC)cc1N(C)CCN(C)C | 0.0465 µM | 0.109 µM | 3.26 µM | 7.24 µM | 9.88 µM | 8.03 µM | 12.9 µM | 7.98 µM | –
7 | C=CC(=O)Nc1cc(Nc2nccc(NC(=O)c3ccccc3)n2)c(OC)cc1N(C)CCN(C)C | 0.143 µM | 0.318 µM | 1.34 µM | 1.06 µM | 1.74 µM | 3.58 µM | 15.1 µM | > 16 µM | –
8 | C=CC(=O)Nc1cc(Nc2nccc(NC(=O)c3cccc4ccccc34)n2)c(OC)cc1N1CCN(C)CC1 | 0.0333 µM | 0.134 µM | 1.09 µM | 7.75 µM | 6.77 µM | 6.6 µM | 18.9 µM | 10.6 µM | –
9 | C=CC(=O)Nc1cc(Nc2nccc(NC(=O)c3ccc(OC)c(OC)c3)n2)c(OC)cc1N1CCC(C(N)=O)CC1 | 0.0547 µM | 0.128 µM | 1.46 µM | 9.45 µM | 4.47 µM | > 10 µM | > 40 µM | > 16 µM | –
10 | C=CC(=O)Nc1cc(Nc2nccc(NC(=O)c3ccc(C(F)(F)F)cc3)n2)c(OC)cc1N1CCC(C(N)=O)CC1 | 0.0653 µM | 0.127 µM | 15.7 µM | > 20 µM | – | – | – | – | –
11 | COc1cc2ncnc(Nc3ccc(F)c(Cl)c3)c2cc1OCCCN1CCOCC1 [GEFITINIB] | – | – | – | – | – | – | – | – | viability at 0.1 µM (NCI-H1975 [4]): 97.6%; viability at 0.1 µM (NCI-H1975 [5]): 93.5%; viability at 0.1 µM (NCI-H1975 [6]): 89.9%; viability at 1 µM (NCI-H1975 [7]): 90.6%; viability at 1 µM (NCI-H1975 [8]): 84.3%; viability at 1 µM (NCI-H1975 [9]): 63.2%; viability at 10 µM (NCI-H1975 [10]): 48.7%; viability at 10 µM (NCI-H1975 [11]): 32.7%; viability at 10 µM (NCI-H1975 [12]): 18.7%
12 | C=CC(=O)Nc1cc(Nc2nccc(NC(=O)c3cccc(OC)c3)n2)c(OC)cc1N(C)CCN(C)C | 0.059 µM | 0.153 µM | 1.16 µM | 4.16 µM | 3 µM | 3.4 µM | 12.3 µM | 11.8 µM | –
13 | C=CC(=O)Nc1cc(Nc2nccc(NC(=O)c3ccccc3)n2)c(OC)cc1N1CCN(C)CC1 | 0.121 µM | 0.156 µM | 1.42 µM | 3.94 µM | 5.97 µM | > 10 µM | 23.9 µM | > 16 µM | –
14 | C=CC(=O)Nc1cc(Nc2nccc(NC(=O)c3ccccc3)n2)c(OC)cc1N1CCC(C(N)=O)CC1 | 0.000587 µM | 0.181 µM | > 20 µM | 15.5 µM | – | – | – | – | –
15 | C=CC(=O)Nc1cc(Nc2nccc(NC(=O)c3cccc(OC)c3)n2)c(OC)cc1N1CCN(C)CC1 | 0.055 µM | 0.147 µM | 4.23 µM | 1.59 µM | 6.45 µM | > 10 µM | 2.5 µM | 15.9 µM | –
16 | C=CC(=O)Nc1cc(Nc2nccc(NC(=O)c3ccccc3)n2)c(OC)cc1N(C)C | – | – | > 20 µM | > 20 µM | – | – | – | – | –
17 | C=CC(=O)Nc1cc(Nc2nccc(NC(=O)c3ccc(OC)c(OC)c3)n2)c(OC)cc1N(C)CCN(C)C | 0.123 µM | 0.187 µM | 2.65 µM | 6.55 µM | 3.95 µM | 3.32 µM | 12.7 µM | 15.5 µM | –
